# Source: patent US10517842B2, “Methods of modulating miRNA levels and compositions for use in the same” (Los Angeles Biomedical Research Institute at Harbor-UCLA …, priority 2017, dated 2019)
# Experiments:
# Format in all cases: cell-based, human
# miR-29c = test: Quantitative RT-PCR (TaqMan miRNA assay), cellular and secreted miRNA in LSMC; conditions: for miR-29c level: 48 hours, LSMC; for expression of miR-29c: primary leiomyoma cells
# Description: (§1) Total RNA was extracted from LSMC using RNAzol (GeneCopoeia, Rockville, Md.) and their quantity and quality was determined (ND-1000 Spectrophotometer, NanoDrop Technologies, Wilmington, Del.) as previously described (Chuang & Khorram, “miR-200c Regulates IL8 Expression by Targeting IKBKB: A Potential Mediator of Inflammation in Leiomyoma Pathogenesis,” PloS one (2014) 9:e95370). For medium miRNA extraction, 5 pg of synthetic miR-1 from Caenorhabditis elegans (cel-miR-1) was added as a spike-in control for purification efficiency. Subsequently, 2 μg or 10 ng (for miRNA) was reverse transcribed using random primers for CCND1, CDK2, COL1A1, COL3A1, TGF-β3, DNMT1 and EZH2 or specific primers for miR-29c and miR-200c according to the manufacturer's guidelines (Applied Biosystems, Carlsbad, Calif.). Quantitative RT-PCR was carried out using SYBR gene expression master mix or TaqMan miRNA expression assays (Applied Biosystems). Reactions were incubated for 10 min at 95° C. followed by 40 cycles for 15 seconds at 95° C. and 1 min at 60° C. The level of mRNAs and expression of cellular and secreted miRNA was determined using the Invitrogen StepOne System with 18S, RNU6B and cel-miR-1 used for normalization respectively. All reactions were run in triplicate and relative expression was analyzed with the comparative cycle threshold method (2^−ΔΔCT) according to the manufacturer (Applied Biosystems). Values were expressed as fold change compared to the control group.
# 3′UTR of COL3A1 = test: 3′UTR luciferase reporter assay in LSMC; conditions: primary leiomyoma cells
# Description: LSMC were seeded at 3.5×10^4 cells/well in 6-well plates and at sub-confluence were treated with Tranilast (200 μM) or DMSO as control for 48 hrs. Tranilast and DMSO-treated cells were then transfected with luciferase reporter plasmids (1 μg/well) containing 3′ UTR sequences for COL3A1 or CDK2 (GeneCopoeia, Inc., Rockville, Md.) using PureFection transfection reagent (System Biosciences, Inc., Palo Alto, Calif.). After 48 hrs of transfection Firefly and Renilla luciferase activities were measured using the Dual-Luciferase Reporter Assay System (Promega). Firefly luciferase activity was normalized to Renilla luciferase activity. The level of induction was reported as mean±SEM of three experiments and compared with a ratio in cells treated with DMSO independently set as 1.
# FIG. 10A: The relative luciferase activity in LSMC treated with Tranilast (200 μM) or DMSO as control for 48 hrs prior to transfection with Renilla and Firefly luciferase reporter plasmids carrying a 3′UTR fragment of COL3A1, CDK2 or IL8 and incubated with Tranilast (200 μM) or DMSO containing medium after transfection for another 48 hrs. The relative luciferase activity is presented as the ratio of Firefly:Renilla as compared to DMSO which was independently set as 1. The results are presented as mean±SEM of at least three sets of independent experiments using LSMC isolated from 3 patients. FIG. 10B: Protein expression of COL3A1 and CDK2 was determined after transfection of anti-miR scrambled oligonucleotides (aNC) or anti-miR-29c oligonucleotides (a29c) in LSMC for 72 hrs with DMSO or Tranilast (200 μM) treatment for the last 48 hrs. GAPDH was used as loading control. The result is one representative of at least three sets of independent experiments using LSMC isolated from 3 patients. FIG. 10C: The bar graph presented the relative band densities as mean±SEM of at least three independent experiments. Inhibition of protein expression by Tranilast treatment was calculated relative to changes in corresponding DMSO controls in cells transfected with aNC or anti-miR-29c.
# 3′UTR of CDK2 = test: 3′UTR luciferase reporter assay in LSMC; conditions: primary leiomyoma cells
# miR-200c = test: Quantitative RT-PCR (TaqMan miRNA assay), cellular and secreted miRNA in LSMC; conditions: primary leiomyoma cells
# Description: as §1
molecule,measurement,setting,value
CC(=O)Oc1ccccc1C(=O)O [Aspirin],miR-29c level,miR-29c; Aspirin 10 mM,not affected
O=C(CC1NCCCC1O)Cn1cnc2cc(Br)c(Cl)cc2c1=O (centres unmarked) [Halofuginone],activity of luciferase reporter containing 3′UTR of COL3A1,3′UTR of COL3A1; Halofuginone 200 nM,inhibit
same,activity of luciferase reporter containing 3′UTR of CDK2,3′UTR of CDK2; Halofuginone 200 nM,inhibit
same,expression of miR-29c,miR-29c; Halofuginone 200 nM,induce
same,expression of miR-200c,miR-200c; Halofuginone 200 nM,induce
Cc1ccc(=O)n(-c2ccccc2)c1 [Pirfenidone],activity of luciferase reporter containing 3′UTR of COL3A1,3′UTR of COL3A1; Pirfenidone 0.25 mg/ml,inhibit
same,activity of luciferase reporter containing 3′UTR of CDK2,3′UTR of CDK2; Pirfenidone 0.25 mg/ml,inhibit
same,expression of miR-29c,miR-29c; Pirfenidone 0.25 mg/ml,induce
same,expression of miR-200c,miR-200c; Pirfenidone 0.25 mg/ml,induce
CCCCc1oc2ccccc2c1C(=O)c1cc(I)c(OCCN(CC)CC)c(I)c1 [amiodarone],miR-29c level,miR-29c; amiodarone 1 μM,not affected
bleomycin,miR-29c level,miR-29c; bleomycin 10 μg/ml,not affected
